The record followed here is patent publication US7880007B2, “Bicyclic substituted phenyl piperidine modulators of muscarinic receptors” (Vertex Pharmaceuticals Incorporated, priority 2004, dated 2011).

What all share (assay type): cell-based
One assay concerns the target T1, M2 muscarinic receptor (Homo sapiens, UniProt P08172).
T1 construct: expressed in transfected cells; host or cells: CHO (M2-CHO)
T1 sequence (P08172 1-466): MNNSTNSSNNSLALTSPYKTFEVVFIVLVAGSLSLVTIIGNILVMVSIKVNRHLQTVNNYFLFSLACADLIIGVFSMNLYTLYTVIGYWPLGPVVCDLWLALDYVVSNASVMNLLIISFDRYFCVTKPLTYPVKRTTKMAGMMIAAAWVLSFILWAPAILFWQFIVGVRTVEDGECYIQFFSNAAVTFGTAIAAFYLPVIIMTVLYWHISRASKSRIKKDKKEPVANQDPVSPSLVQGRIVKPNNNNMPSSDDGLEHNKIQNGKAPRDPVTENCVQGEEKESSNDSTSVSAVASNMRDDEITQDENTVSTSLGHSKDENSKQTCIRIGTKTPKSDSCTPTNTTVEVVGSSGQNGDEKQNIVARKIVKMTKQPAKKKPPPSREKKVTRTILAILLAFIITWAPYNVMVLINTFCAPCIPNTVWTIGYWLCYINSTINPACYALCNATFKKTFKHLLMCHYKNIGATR
The experiment in a line: Functional mobilization of intracellular calcium (FLIPR), M2-CHO cells. The conditions noted are these: for Emax: 100% efficacy = maximum response obtained with the Carbachol control; for M2 Activity: M2-CHO cells, calcium mobilization (FLIPR). A digest of the protocol:
(§1)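 Calcium mobilisation read by FLIPR over 60 s (ex 488/em 540 nm) in recombinant muscarinic CHO lines loaded with calcium dye plus 1 mM probenecid. Compounds tested as agonists alone, or as inhibitors against EC80 carbachol after 15 min pre-incubation or co-addition; 0.5% DMSO; efficacy scaled to carbachol maximal response.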
On the technique in general: A change in cytosolic calcium serves as a functional read-out for many receptors and channels.

The target of a further assay is T2, M3 muscarinic receptor (Homo sapiens, UniProt P20309).
T2 construct: expressed in transfected cells; host or cells: CHO (M3-CHO)
The experiment in a line: Functional mobilization of intracellular calcium (FLIPR), M3-CHO cells. The conditions noted are these: for Emax: 100% efficacy = maximum response obtained with the Carbachol control; for M3 Activity: M3-CHO cells, calcium mobilization (FLIPR). A digest of the protocol: as §1

A further assay concerns the target T3, M4 muscarinic receptor (Homo sapiens, UniProt P08173).
T3 construct: expressed in transfected cells; host or cells: CHO (M4-CHO)
T3 sequence (P08173 1-479): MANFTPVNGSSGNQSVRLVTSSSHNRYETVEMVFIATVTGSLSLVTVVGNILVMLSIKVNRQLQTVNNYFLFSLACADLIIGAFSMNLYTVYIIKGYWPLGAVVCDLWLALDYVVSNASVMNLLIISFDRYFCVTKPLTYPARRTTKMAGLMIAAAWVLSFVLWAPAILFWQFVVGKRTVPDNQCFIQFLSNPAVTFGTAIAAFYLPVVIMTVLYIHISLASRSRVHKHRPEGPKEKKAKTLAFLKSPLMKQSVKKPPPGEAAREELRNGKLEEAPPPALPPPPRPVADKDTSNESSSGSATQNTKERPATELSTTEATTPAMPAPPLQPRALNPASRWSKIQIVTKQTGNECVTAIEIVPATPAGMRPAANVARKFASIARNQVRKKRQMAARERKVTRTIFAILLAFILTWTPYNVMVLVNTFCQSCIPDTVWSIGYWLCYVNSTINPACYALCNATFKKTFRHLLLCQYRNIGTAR
The experiment in a line: Functional mobilization of intracellular calcium (FLIPR), M4-CHO cells. To be noted: for Emax: 100% efficacy = maximum response obtained with the Carbachol control; for M4 Activity: M4-CHO cells, calcium mobilization (FLIPR). A digest of the protocol: as §1

The target in a further assay is T4, M1 muscarinic receptor (Homo sapiens, UniProt P11229).
T4 construct: expressed in transfected cells; host or cells: CHO (M1-CHO)
T4 sequence (P11229 1-460): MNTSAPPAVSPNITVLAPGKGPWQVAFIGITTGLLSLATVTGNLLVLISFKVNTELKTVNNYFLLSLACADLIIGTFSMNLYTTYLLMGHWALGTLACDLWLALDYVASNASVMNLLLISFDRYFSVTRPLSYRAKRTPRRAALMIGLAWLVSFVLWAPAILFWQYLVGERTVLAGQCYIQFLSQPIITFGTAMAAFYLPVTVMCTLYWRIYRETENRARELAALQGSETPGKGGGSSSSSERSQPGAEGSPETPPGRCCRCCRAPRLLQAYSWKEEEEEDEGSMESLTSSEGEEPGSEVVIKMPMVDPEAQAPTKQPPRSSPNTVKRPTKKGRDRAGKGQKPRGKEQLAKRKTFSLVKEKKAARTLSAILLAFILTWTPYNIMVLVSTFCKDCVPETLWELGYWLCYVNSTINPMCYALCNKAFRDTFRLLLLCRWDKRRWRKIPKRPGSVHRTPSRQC
The experiment in a line: Functional mobilization of intracellular calcium (FLIPR), M1-CHO cells. To be noted: for Emax: 100% efficacy = maximum response obtained with the Carbachol control; for M1 Activity: M1-CHO cells, calcium mobilization (FLIPR). Put shortly: as §1

T2 sequence (P20309 whole entry): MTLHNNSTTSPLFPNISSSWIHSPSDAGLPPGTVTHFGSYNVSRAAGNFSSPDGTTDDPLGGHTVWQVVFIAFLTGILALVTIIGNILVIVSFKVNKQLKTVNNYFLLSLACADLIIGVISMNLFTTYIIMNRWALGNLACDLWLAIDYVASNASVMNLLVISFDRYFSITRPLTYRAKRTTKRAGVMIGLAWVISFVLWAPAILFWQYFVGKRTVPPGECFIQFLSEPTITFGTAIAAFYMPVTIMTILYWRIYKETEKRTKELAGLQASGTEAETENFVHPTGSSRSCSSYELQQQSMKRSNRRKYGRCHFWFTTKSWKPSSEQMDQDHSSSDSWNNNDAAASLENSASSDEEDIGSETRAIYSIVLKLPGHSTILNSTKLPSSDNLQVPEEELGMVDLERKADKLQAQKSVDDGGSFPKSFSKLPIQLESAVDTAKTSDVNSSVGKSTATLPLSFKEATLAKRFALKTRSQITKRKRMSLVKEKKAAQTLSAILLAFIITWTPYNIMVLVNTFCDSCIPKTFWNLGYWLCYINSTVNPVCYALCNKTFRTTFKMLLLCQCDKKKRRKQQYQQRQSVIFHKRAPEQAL

One may read the Emax as the greatest response seen or fitted, relative to the assay's reference. With `COc1ccc(Cl)cc1C1CCN(C2CCCCC2)CC1` [Compound 9], at M2 muscarinic receptor, the Emax lay in the range of 25 to 100% and the “M2 Activity” value is on record as “+++ (activity was measured to be less than 1.0 μM)”. Moreover, at M3 muscarinic receptor, the Emax is under 25% and the “M3 Activity” value is listed as “+ (activity was measured to be greater than 5.0 μM)”. Also, at M4 muscarinic receptor, the Emax was 25 to 100% and the “M4 Activity” value is given as “+++ (activity was measured to be less than 1.0 μM)”. Besides, at M1 muscarinic receptor, the Emax is 25 to 100% and the “M1 Activity” value is reported as “+++ (activity was measured to be less than 1.0 μM)”.

`CCOC(=O)N1CCC(CN2CCC(OC)(c3cc(Cl)ccc3OC)CC2)CC1` [Compound 108]: on M2 muscarinic receptor, the Emax was under 25% and the “M2 Activity” value was “++ (activity was measured to be from 1.0 μM to 5.0 μM)”. At M3 muscarinic receptor, the Emax was under 25% and the “M3 Activity” value was “+ (activity was measured to be greater than 5.0 μM)”. For the same compound, on M4 muscarinic receptor, the Emax lay within 25 to 100% and the “M4 Activity” value is on record as “+++ (activity was measured to be less than 1.0 μM)”. Also, on M1 muscarinic receptor, the Emax lay in the range of 25 to 100% and the “M1 Activity” value is on record as “+++ (activity was measured to be less than 1.0 μM)”.

In the case of `COc1cc(F)ccc1C1CCN([C@H]2C[C@H]3CC[C@H]2C3)CC1` [Compound 4], at M2 muscarinic receptor, the Emax was under 25% and the “M2 Activity” value was “+ (activity was measured to be greater than 5.0 μM)”. Also, at M3 muscarinic receptor, the Emax is under 25% and the “M3 Activity” value is listed as “+ (activity was measured to be greater than 5.0 μM)”. For the same compound, at M4 muscarinic receptor, the Emax fell in the range of 25 to 100% and the “M4 Activity” value was “+++ (activity was measured to be less than 1.0 μM)”. Besides, on M1 muscarinic receptor, the Emax fell in the range of 25 to 100% and the “M1 Activity” value is on record as “+ (activity was measured to be greater than 5.0 μM)”.

As to `COc1c(F)cc(F)cc1C1CCN([C@@H]2C[C@H]3CC[C@H]2C3)CC1` [Compound 103], at M2 muscarinic receptor, the Emax is under 25% and the “M2 Activity” value is “+ (activity was measured to be greater than 5.0 μM)”. In addition, at M3 muscarinic receptor, the Emax was under 25% and the “M3 Activity” value is “+ (activity was measured to be greater than 5.0 μM)”. Moreover, at M4 muscarinic receptor, the Emax was under 25% and the “M4 Activity” value was “++ (activity was measured to be from 1.0 μM to 5.0 μM)”. For the same compound, at M1 muscarinic receptor, the Emax was under 25% and the “M1 Activity” value is given as “+ (activity was measured to be greater than 5.0 μM)”.

`COc1ccc(-c2ccc(C(=O)N3CCOCC3)cc2)cc1C1CCN([C@H]2C[C@H]3CC[C@H]2C3)CC1` [Compound 8]: on M2 muscarinic receptor, the Emax is under 25% and the “M2 Activity” value is “+ (activity was measured to be greater than 5.0 μM)”. Besides, at M3 muscarinic receptor, the Emax was under 25% and the “M3 Activity” value was “+ (activity was measured to be greater than 5.0 μM)”. Besides, at M4 muscarinic receptor, the Emax was under 25% and the “M4 Activity” value is reported as “+ (activity was measured to be greater than 5.0 μM)”. At M1 muscarinic receptor, the Emax is under 25% and the “M1 Activity” value is “+ (activity was measured to be greater than 5.0 μM)”.

For the compound `COc1ccc(Cl)cc1C1CCN(CC2CCOCC2)CC1` [Compound 121], on M2 muscarinic receptor, the Emax was under 25% and the “M2 Activity” value was “+ (activity was measured to be greater than 5.0 μM)”. Moreover, at M3 muscarinic receptor, the Emax is under 25% and the “M3 Activity” value is “+ (activity was measured to be greater than 5.0 μM)”. At M4 muscarinic receptor, the Emax lay in the range of 25 to 100% and the “M4 Activity” value is “+++ (activity was measured to be less than 1.0 μM)”. Further, on M1 muscarinic receptor, the maximal response (Emax) is 25 to 100% and the “M1 Activity” value is reported as “++ (activity was measured to be from 1.0 μM to 5.0 μM)”.

As for `COc1ccc(Cl)cc1C1(F)CCN(C[C@@H]2C[C@H]3C=C[C@H]2C3)CC1` [Compound 44], on M2 muscarinic receptor, the Emax was 25 to 100% and the “M2 Activity” value is recorded as “+ (activity was measured to be greater than 5.0 μM)”. Besides, on M3 muscarinic receptor, the Emax is under 25% and the “M3 Activity” value is given as “+ (activity was measured to be greater than 5.0 μM)”. For the same compound, at M4 muscarinic receptor, the Emax lay within 25 to 100% and the “M4 Activity” value was “++ (activity was measured to be from 1.0 μM to 5.0 μM)”. Besides, at M1 muscarinic receptor, the Emax fell in the range of 25 to 100% and the “M1 Activity” value is “+ (activity was measured to be greater than 5.0 μM)”.

On to `Cc1ccccc1C1CCN([C@H]2C[C@H]3CC[C@H]2C3)CC1` [Compound 24], for which, at M2 muscarinic receptor, the maximal effect (Emax) is 25 to 100% and the “M2 Activity” value is “++ (activity was measured to be from 1.0 μM to 5.0 μM)”. In addition, at M3 muscarinic receptor, the Emax is under 25% and the “M3 Activity” value was “+ (activity was measured to be greater than 5.0 μM)”. Moreover, at M4 muscarinic receptor, the maximum response (Emax) lay in the range of 25 to 100% and the “M4 Activity” value is reported as “+++ (activity was measured to be less than 1.0 μM)”. At M1 muscarinic receptor, the Emax lay in the range of 25 to 100% and the “M1 Activity” value is listed as “++ (activity was measured to be from 1.0 μM to 5.0 μM)”.

`Cc1ccc(-c2ccccc2C2CCN([C@H]3C[C@H]4CC[C@H]3C4)CC2)cc1` [Compound 45]: at M2 muscarinic receptor, the Emax is under 25% and the “M2 Activity” value is “+ (activity was measured to be greater than 5.0 μM)”. Besides, on M3 muscarinic receptor, the Emax was under 25% and the “M3 Activity” value is “+ (activity was measured to be greater than 5.0 μM)”. In addition, on M4 muscarinic receptor, the Emax lay in the range of 25 to 100% and the “M4 Activity” value was “+ (activity was measured to be greater than 5.0 μM)”. On M1 muscarinic receptor, the maximal effect (Emax) was under 25% and the “M1 Activity” value is “+ (activity was measured to be greater than 5.0 μM)”.

On to `COc1ccc(Cl)cc1C1CCN(C2CCOCC2)CC1` [Compound 249], for which, on M2 muscarinic receptor, the Emax is 25 to 100% and the “M2 Activity” value was “+ (activity was measured to be greater than 5.0 μM)”. Besides, at M3 muscarinic receptor, the Emax is under 25% and the “M3 Activity” value is given as “+ (activity was measured to be greater than 5.0 μM)”. On M4 muscarinic receptor, the Emax was 25 to 100% and the “M4 Activity” value is recorded as “+++ (activity was measured to be less than 1.0 μM)”. On M1 muscarinic receptor, the Emax was 25 to 100% and the “M1 Activity” value was “+ (activity was measured to be greater than 5.0 μM)”.

For `FC(F)(F)c1ccccc1C1CCN(C2C[C@H]3CC[C@H]2C3)CC1` (stereo partly shown) [Compound 32], the Emax was under 25% on M2 muscarinic receptor, under 25% at M3 muscarinic receptor, 25 to 100% at M4 muscarinic receptor and 25 to 100% on M1 muscarinic receptor.

For the compound `COc1ccccc1C1CCN(C2CCOCC2)CC1` [Compound 90], at M2 muscarinic receptor, the Emax was under 25% and the “M2 Activity” value is “+ (activity was measured to be greater than 5.0 μM)”. Moreover, on M3 muscarinic receptor, the Emax is under 25% and the “M3 Activity” value is given as “+ (activity was measured to be greater than 5.0 μM)”. Also, on M4 muscarinic receptor, the Emax is 25 to 100% and the “M4 Activity” value is “+++ (activity was measured to be less than 1.0 μM)”. At M1 muscarinic receptor, the Emax was in the range of 25 to 100% and the “M1 Activity” value was “+ (activity was measured to be greater than 5.0 μM)”.

Take `CNC(=O)c1ccc(-c2ccc(OC)c(C3CCN(C4CC5CCC(C5)C4)CC3)c2)cc1` (stereo not shown) [Compound 196]: on M2 muscarinic receptor, the Emax was under 25% and the “M2 Activity” value is listed as “+ (activity was measured to be greater than 5.0 μM)”. For the same compound, on M3 muscarinic receptor, the Emax is under 25% and the “M3 Activity” value is reported as “+ (activity was measured to be greater than 5.0 μM)”. Further, at M4 muscarinic receptor, the maximal effect (Emax) fell in the range of 25 to 100% and the “M4 Activity” value is “+++ (activity was measured to be less than 1.0 μM)”. Moreover, at M1 muscarinic receptor, the Emax was under 25% and the “M1 Activity” value is on record as “+ (activity was measured to be greater than 5.0 μM)”.
